Data on ten compounds can be found in patent US8343696B2, “Colored curable composition, fluorine-containing dipyrromethene compound and tautomer thereof, and fluorine-containing dipyrromethene metal complex and tautomer thereof, and color filter using the same and method for producing the color filter” (FUJIFILM Corporation, priority 2008, dated 2013).

Molecules are shown by their SMILES.

Common to all, as to assay type: physicochemical
A short description of series [1]: Light-fastness of coating film (color difference ΔEab before and after xenon lamp irradiation). Conditions: xenon lamp 20,000 luxes for 10 hours (200,000 lux·h). As to the method:
A glass substrate having undercoat layer formed by applying the colored resin composition obtained in section 3 above was irradiated with a xenon lamp at an intensity of 20,000 luxes for 10 hours (equivalent to 200,000 lux·h), and the color difference ΔEab between before and after the irradiation was determined. The light-fastness was evaluated according to the following criteria. A smaller ΔEab value indicates better light-fastness.
(§1) A: ΔEab value was less than 6
(§2) B: ΔEab value was from 6 to 10
(§3) C: ΔEab value was more than 10

Series [2] can be described thus: Storage stability of colored resist solution (precipitation after one month at room temperature). Details: key: A: No precipitation was observed; B: Slight precipitation was observed; C: Precipitation was observed. Conditions: negative-working colored resist solution, visual precipitation. From the text: 9.4 g of the resist solution obtained in section 1 above and 0.35 g of the exemplary compound Ia-12 synthesized above (a compound represented by Formula (4): dipyrromethene complex compound) were mixed and dissolved, whereby a colored resist solution (a negative-working ultraviolet-sensitive colored curable composition) was obtained.
The colored resist solution was stored for one month at room temperature, and then degree of precipitation was visually observed. The storage stability was evaluated according to the following criteria.
A: No precipitation was observed
B: Slight precipitation was observed
C: Precipitation was observed

The nature of series [3]: Heat resistance of coating film (color difference ΔEab before and after heating). As to conditions: 100° C. for 1 hour on hot plate. As for the experimental part: A glass substrate having undercoat layer formed by applying the colored resin composition obtained in section 3 above was heat-treated at 100° C. for 1 hour using a hot plate, and the color difference (ΔEab) between before and after the heating was determined by using a […] MCPD-1000 (trade name, manufactured by Otsuka Electronics Co., Ltd.). The heat resistance was evaluated according to the following criteria. A smaller AEab value indicates better heat resistance.
as §1, §2, §3

Series [4] is described as follows: Transmittance at 450 nm of the color filter. As to conditions: negative-working colored resist, 1.0 μm film; transmittance at λmax normalized to 2%. As for the experimental part: The colored resist solution obtained in section 3 above was applied to an undercoat layer side of the glass substrate having an undercoat layer obtained in section 2 above by a spin coater such that a film thickness was 1.0 μm. Subsequently, the film was pre-baked at 100° C. for 120 sec, whereby a monochromatic color filter was obtained.
The transmission spectrum of the color filter obtained above was measured, and the transmittance at 450 nm was evaluated according to the following criteria. The transmittance of the color filter at 450 nm was evaluated by correcting (normalizing) the transmittance at the maximum absorption wavelength of the colorant included in the color filter to 2%. A larger transmittance indicates greater transmission of blue light, which indicates favorable magenta or violet color that can be used in a blue filter.
A: Transmittance at 450 nm was 90% or more
B: Transmittance at 450 nm was 80% or more but not more than 90%
C: Transmittance at 450 nm was not more than 80%

Series [5] in a line: Absorption spectrum in ethyl acetate solution (spectrophotometer UV-2400PC). As to the method:
In consideration of film thickness, the molar absorption coefficient of the specific metal complex compounds-1, -2, -3 and -4 of the invention is preferably as high as possible, and 60,000 or higher is preferable. The maximum absorption wavelength (λmax) thereof is preferably from 520 nm to 580 nm, and more preferably from 530 nm to 570 nm, in order to improve color purity. The maximum absorption wavelength and the molar absorption coefficient are determined by using a spectrophotometer UV-2400PC (manufactured by Shimadzu Corporation).
The molar absorption coefficient (ε) of each of the obtained compounds was measured in an ethyl acetate solution using a spectrophotometer (trade name: UV-2400PC; manufactured by Shimadzu Corporation). The absorbance (Abs) at 450 nm was evaluated by normalizing the absorbance at a maximum absorption wavelength (λmax) to 1.0. […] The measurement results of the absorbance (Abs value), maximum absorption wavelength (λmax), and molar absorption coefficient (ε) are shown in Table 1.
By the method similar to the reaction scheme in Synthesis Example 1 above, the exemplary compounds (dipyrromethene metal complex compounds or tautomers thereof) shown in Table 1 were synthesized. The identification of the compounds and the measurement of the maximum absorption wavelength (λmax) and the molar absorption coefficient (ε) of the compounds were performed similarly to Synthesis Example 1 above.

In the case of `CC1=C(C(=O)OC2C(C(C)(C)C)CC(C)CC2C(C)(C)C)C(NC(=O)c2cc(C(F)(F)F)cc(C(F)(F)F)c2)=[N+]2C1=Cc1c(C)c(C(=O)OC3C(C(C)(C)C)CC(C)CC3C(C)(C)C)c(NC(=O)c3cc(C(F)(F)F)cc(C(F)(F)F)c3)[n]1[Zn-]2[OH]` (stereo not shown) [IIa-14], in series [1], the Light-fastness entry is listed as “A (ΔEab value was less than 6)”. Besides, the Storage stability entry in series [2] is on record as “A”. Besides, the Heat resistance result in series [3] is “A (ΔEab value was less than 6)”. Besides, the “Transmittance at 450 nm” value in series [4] is on record as “A (Transmittance at 450 nm was 90% or more)”. Besides, in series [5], the “maximum absorption wavelength (λmax)” value came out at 551 nm, the “molar absorption coefficient (ε)” value is recorded as 100,100 and the “Abs value at 450 nm when normalized to Abs = 1.0 at λmax” value (“Abs value at 450 nm when normalized” for short) was 0.0114.
On to `CC1CC(C(C)(C)C)C(OC(=O)C2=C(c3ccccc3)C3=Cc4c(-c5ccccc5)c(C(=O)OC5C(C(C)(C)C)CC(C)CC5C(C)(C)C)c(NC(=O)c5c(F)c(F)c(F)c(F)c5F)[n]4[Zn-]([OH])[N+]3=C2NC(=O)c2c(F)c(F)c(F)c(F)c2F)C(C(C)(C)C)C1` (stereo not shown) [IIb-40], for which, in series [1], the Light-fastness result is recorded as “A (ΔEab value was less than 6)”. Besides, the Storage stability result in series [2] is “A”. In addition, the Heat resistance result in series [3] was “A (ΔEab value was less than 6)”. Besides, the “Transmittance at 450 nm” value in series [4] is recorded as “A (Transmittance at 450 nm was 90% or more)”. Besides, in series [5], the “maximum absorption wavelength (λmax)” value is reported as 562 nm, the “molar absorption coefficient (ε)” value is on record as 107,300 and the “Abs value at 450 nm when normalized” value is reported as 0.0087.
With `Cc1c(C(=O)OC2C(C(C)(C)C)CC(C)CC2C(C)(C)C)c(NC(=O)c2ccc(F)c(F)c2)[n]2c1C=C1C(c3ccccc3)=C(C#N)C(NC(=O)C(C)Sc3cc(C(=O)O)cc(C(=O)O)c3)=[N+]1[Zn-]2[OH]` (stereo not shown) [Ia-35], the Light-fastness entry in series [1] was “A (ΔEab value was less than 6)”. For the same compound, in series [2], the Storage stability entry is given as “A”. Besides, in series [3], the Heat resistance entry is “A (ΔEab value was less than 6)”. Further, the “Transmittance at 450 nm” value in series [4] is “A (Transmittance at 450 nm was 90% or more)”. In series [5], the “maximum absorption wavelength (λmax)” value turned out to be 559 nm, the “molar absorption coefficient (ε)” value is reported as 90,100 and the “Abs value at 450 nm when normalized” value came out at 0.0106.
Regarding `CC1=C(C(=O)OC2C(C(C)(C)C)CC(C)CC2C(C)(C)C)C(NC(=O)c2ccc(C(F)(F)F)cc2)=[N+]2C1=Cc1c(C)c(C(=O)OC3C(C(C)(C)C)CC(C)CC3C(C)(C)C)c(NC(=O)c3ccc(C(F)(F)F)cc3)[n]1[Zn-]2[OH]` (stereo not shown) [IIa-7], the Light-fastness result in series [1] is “A (ΔEab value was less than 6)”. In addition, the Storage stability entry in series [2] was “A”. In series [3], the Heat resistance result is reported as “A (ΔEab value was less than 6)”. For the same compound, the “Transmittance at 450 nm” value in series [4] is recorded as “A (Transmittance at 450 nm was 90% or more)”. Moreover, in series [5], the “maximum absorption wavelength (λmax)” value is 554 nm, the “molar absorption coefficient (ε)” value is recorded as 111,800 and the “Abs value at 450 nm when normalized” value is on record as 0.0089.
For the compound `CC1CC(C(C)(C)C)C(OC(=O)c2c(-c3ccccc3)c3[n](c2NC(=O)c2cccc(C(F)(F)F)c2)[Zn-]([OH])[N+]2=C(NC(=O)C(C)SCCCS(=O)(=O)[O-])C(C#N)=C(c4ccccc4)C2=C3)C(C(C)(C)C)C1.[Na+]` (stereo not shown) [Ib-20], the Light-fastness entry in series [1] is given as “B (ΔEab value was from 6 to 10)”. For the same compound, in series [2], the Storage stability result is “A”. For the same compound, the Heat resistance result in series [3] is “B (ΔEab value was from 6 to 10)”. Moreover, the “Transmittance at 450 nm” value in series [4] was “A (Transmittance at 450 nm was 90% or more)”. For the same compound, in series [5], the “maximum absorption wavelength (λmax)” value worked out at 563 nm, the “molar absorption coefficient (ε)” value was 88,700 and the “Abs value at 450 nm when normalized” value was 0.0142.
`CC1CC(C(C)(C)C)C(OC(=O)c2c(-c3ccccc3)c3[n](c2NC(=O)c2cc(F)ccc2NS(C)(=O)=O)[Zn-]([OH])[N+]2=C(NC(=O)C(C)Sc4cc(C(=O)O)cc(C(=O)O)c4)C(C#N)=C(c4ccccc4)C2=C3)C(C(C)(C)C)C1` (stereo not shown) [Ib-49]: in series [1], the Light-fastness entry is listed as “A (ΔEab value was less than 6)”. The Storage stability result in series [2] is “B”. For the same compound, the Heat resistance entry in series [3] is on record as “A (ΔEab value was less than 6)”. In series [4], the “Transmittance at 450 nm” value is reported as “A (Transmittance at 450 nm was 90% or more)”. In series [5], the “maximum absorption wavelength (λmax)” value was 566 nm, the “molar absorption coefficient (ε)” value was 91,500 and the “Abs value at 450 nm when normalized” value is given as 0.0116.
For `Cc1c(C(=O)OC2C(C(C)(C)C)CC(C)CC2C(C)(C)C)c(NC(=O)c2cc(F)cc(F)c2)[n]2c1C=C1C(c3ccccc3)=C(C#N)C(NC(=O)C(C)Sc3cc(C(=O)O)cc(C(=O)O)c3)=[N+]1[Zn-]2[OH]` (stereo not shown) [Ia-38], the Light-fastness result in series [1] is reported as “A (ΔEab value was less than 6)”. Besides, the Storage stability result in series [2] is “A”. In series [3], the Heat resistance result is reported as “A (ΔEab value was less than 6)”. Also, the “Transmittance at 450 nm” value in series [4] is given as “A (Transmittance at 450 nm was 90% or more)”. In addition, in series [5], the “maximum absorption wavelength (λmax)” value was determined as 558 nm, the “molar absorption coefficient (ε)” value is given as 79,400 and the “Abs value at 450 nm when normalized” value was 0.0191.
For the compound `CC1CC(C(C)(C)C)C(OC(=O)c2c(-c3ccccc3)c(C=C3N=C(NC(=O)CCCSc4cc(C(=O)O)cc(C(=O)O)c4)C(C#N)=C3c3ccccc3)[n]([Zn][OH])c2NC(=O)c2cc(F)cc(F)c2F)C(C(C)(C)C)C1` (stereo not shown) [Ib-59], the Light-fastness result in series [1] is “A (ΔEab value was less than 6)”. In addition, in series [2], the Storage stability result is “A”. Also, the Heat resistance result in series [3] was “A (ΔEab value was less than 6)”. Further, the “Transmittance at 450 nm” value in series [4] is given as “A (Transmittance at 450 nm was 90% or more)”. Besides, in series [5], the “maximum absorption wavelength (λmax)” value is listed as 559 nm, the “molar absorption coefficient (ε)” value is given as 93,900 and the “Abs value at 450 nm when normalized” value is on record as 0.0083.
In the case of `CC1=C(C(=O)OC2C(C(C)(C)C)CC(C)CC2C(C)(C)C)C(NC(=O)c2ccc(F)c([N+](=O)[O-])c2)=[N+]2C1=Cc1c(C)c(C(=O)OC3C(C(C)(C)C)CC(C)CC3C(C)(C)C)c(NC(=O)c3ccc(F)c([N+](=O)[O-])c3)[n]1[Zn-]2[OH]` (stereo not shown) [IIa-25], the Light-fastness result in series [1] is “A (ΔEab value was less than 6)”. Besides, the Storage stability entry in series [2] is “B”. For the same compound, the Heat resistance entry in series [3] is “A (ΔEab value was less than 6)”. For the same compound, the “Transmittance at 450 nm” value in series [4] is on record as “A (Transmittance at 450 nm was 90% or more)”. In series [5], the “maximum absorption wavelength (λmax)” value worked out at 555 nm, the “molar absorption coefficient (ε)” value is reported as 126,900 and the “Abs value at 450 nm when normalized” value turned out to be 0.0081.
For `Cc1c(C(=O)OC2C(C(C)(C)C)CC(C)CC2C(C)(C)C)c(NC(=O)c2ccc(C(F)(F)F)cc2)[n]2c1C=C1C(c3ccccc3)=C(C#N)C(NC(=O)C(C)Sc3cc(C(=O)O)cc(C(=O)O)c3)=[N+]1[Zn-]2[OH]` (stereo not shown) [Ia-23], the Light-fastness entry in series [1] was “A (ΔEab value was less than 6)”. For the same compound, the Storage stability result in series [2] is reported as “A”. In series [3], the Heat resistance entry is given as “A (ΔEab value was less than 6)”. For the same compound, the “Transmittance at 450 nm” value in series [4] is “A (Transmittance at 450 nm was 90% or more)”. For the same compound, in series [5], the “maximum absorption wavelength (λmax)” value turned out to be 558 nm, the “molar absorption coefficient (ε)” value is recorded as 83,200 and the “Abs value at 450 nm when normalized” value is recorded as 0.0099.
